Reference: patent US20060216253A1, “Whitening cosmetics containing morus alba extracts” (Time and Cross, Inc., priority 2005, published 2006)

What was measured:
[1] = biological target: Mushroom Tyrosinase; assay: Inhibitory effects on mushroom tyrosinase (dopachrome, OD490, 15 min); type: biochemical
Description: (§1) L-Tyrosine, the substrate for tyrosinase, was dissolved in 50 mM sodium phosphate buffer (pH6.8) to prepare a solution of 0.1 mg/mL L-tyrosine. […] 100 μL of the L-tyrosine solution was introduced into a test tube, and 100 μL of 50 mM sodium phosphate buffer (pH6.8) with or without test samples were added thereto, and then 10 μL of 200 U/mL tyrosinase were mixed and incubated at 37° C. for 15 min.
The amount of dopachrome in the reaction mixture was determined spectrophotmetrically using absorbance measurement at 490 nm.

[2] = biological target: T1, Murine Tyrosinase (Mus musculus, UniProt P11344); assay: Inhibitory effects on murine tyrosinase prepared from melanoma B-16 cells; type: biochemical; conditions: tyrosinase from melanoma B-16 cells
T1 construct: supernatant was dialyzed against 50 mM sodium phosphate buffer (pH 6.8) and then used as a source of murine tyrosinase; endogenous in cells; host or cells: murine melanoma B-16 cells (Triton X-100 extract, dialysed supernatant)
T1 sequence (P11344 19-533): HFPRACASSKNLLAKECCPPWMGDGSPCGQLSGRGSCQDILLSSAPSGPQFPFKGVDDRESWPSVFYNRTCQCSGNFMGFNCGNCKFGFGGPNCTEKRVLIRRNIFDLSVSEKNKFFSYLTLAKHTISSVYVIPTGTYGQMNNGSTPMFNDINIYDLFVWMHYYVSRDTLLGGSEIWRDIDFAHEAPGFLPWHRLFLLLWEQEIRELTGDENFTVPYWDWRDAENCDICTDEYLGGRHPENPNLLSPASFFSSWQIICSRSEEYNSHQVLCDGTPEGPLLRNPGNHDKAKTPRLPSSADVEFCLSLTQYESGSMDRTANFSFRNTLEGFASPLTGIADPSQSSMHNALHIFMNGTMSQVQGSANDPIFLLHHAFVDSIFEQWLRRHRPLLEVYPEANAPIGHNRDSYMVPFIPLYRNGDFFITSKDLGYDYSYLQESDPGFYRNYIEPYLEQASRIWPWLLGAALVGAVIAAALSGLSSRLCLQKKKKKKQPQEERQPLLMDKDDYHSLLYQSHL
Description: Murine tyrosinase was prepared from the melanoma B-16 cell line. Murine melanoma B-16 cells were grown in DMEM (13.4 mg/mL of Dulbecco's modified Eagle's medium, 24 mM NaHCO3, 10 mM HEPES, 143 units/mL of penicillin G potassium, 160 μg/mL of streptomycin sulfate, pH 7.1) containing 10% fetal bovine serum (FBS) with 5% CO2 at 37° C. When the cells were confluent, melanoma cells were removed from culture dishes and washed once with PBS buffer. The cell suspension was centrifuged at 250×g for 10 min at 4° C. The cell pellet was suspended in 0.5 mL of 50 mM sodium phosphate buffer (pH 6.8) containing 0.1 mM phenylmethylsulfonyl fluoride and 0.5% Triton X-100. The cell suspension was sonicated six times for 30 sec each with 1 min intervals and then incubated at 4° C. for 1 hr to solubilize the tyrosinase. After centrifugation at 50,000×g for 20 min at 4° C., supernatant was dialyzed against 50 mM sodium phosphate buffer (pH 6.8) and then used as a source of murine tyrosinase.
As in the mushroom tyrosinase experiment discussed above, the amount of dopachrome in the reaction mixture was determined spectrophotmetrically using absorbance measurement at 490 nm.

[3] = biological target: T2, Human Tyrosinase (Homo sapiens, UniProt P14679); assay: Inhibitory effects on human tyrosinase prepared from HM3KO human melanoma cells; type: biochemical
T2 construct: endogenous in cells; host or cells: HM3KO human melanoma cells (Triton X-100 extract, dialysed supernatant)
T2 sequence (P14679 19-529): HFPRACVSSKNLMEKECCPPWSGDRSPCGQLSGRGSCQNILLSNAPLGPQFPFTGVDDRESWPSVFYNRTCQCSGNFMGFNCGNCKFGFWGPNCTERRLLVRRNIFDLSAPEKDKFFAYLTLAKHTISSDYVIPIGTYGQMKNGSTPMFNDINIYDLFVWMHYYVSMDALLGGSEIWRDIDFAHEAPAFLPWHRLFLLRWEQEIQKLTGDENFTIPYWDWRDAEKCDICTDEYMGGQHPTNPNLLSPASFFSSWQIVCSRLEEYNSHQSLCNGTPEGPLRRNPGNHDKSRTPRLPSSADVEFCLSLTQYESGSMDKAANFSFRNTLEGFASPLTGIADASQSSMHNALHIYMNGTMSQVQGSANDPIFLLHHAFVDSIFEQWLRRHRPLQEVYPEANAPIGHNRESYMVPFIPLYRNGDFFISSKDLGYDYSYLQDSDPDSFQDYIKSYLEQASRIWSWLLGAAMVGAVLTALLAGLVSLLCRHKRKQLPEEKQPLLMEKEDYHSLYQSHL
Description: Human tyrosinase was prepared from the HM3KO human melanoma cell line. HM3KO cells were cultured in modified Eagles medium supplemented with 10% fetal calf serum. Cultured cells were removed from culture dishes and washed once with PBS buffer and centrifuged. The cell pellet was sonicated in 100 mM sodium phosphate buffer (pH6.8) containing 0.1 mM phenylmethylsulfonyl fluoride (PMSF) and 1% Triton X-100, incubated in ice for 1 hr to solubilize the tyrosinase, and centrifuged. The supernatant was dialyzed against 50 mM sodium phosphate buffer (pH 6.8) and then used as the source of human tyrosinase for use in our inhibition assays.
As in the mushroom and murine tyrosinase experiments discussed above, the amount of dopachrome in the reaction mixture was determined spectrophotmetrically using absorbance measurement at 490 nm.

[4] = system: murine melanoma B16 cells; assay: Melanin production in murine melanoma B-16 cells; type: cell-based; conditions: for Melanin production (%): B16 cells, 3 days
Description: The melanoma cell line was grown in DMEM culture medium containing 4.5 g of glucose/l, 10% fetal bovine serum and 1% antibiotic agent and cultivated at 37° C. under a condition of 5% CO2. The cell suspension was inoculated in a 50 mL T-flask (3×10^5 cells/mL) and the cells were allowed to completely adhere to the plate for 24 hr. Then, test samples diluted in DMEM medium at concentrations of 1, 5, 10, 50, and 100 μg/mL were added to the cultivated cells, and the mixture was cultivated at 5% CO2 and 37° C. for 3 days. After cultivation, culture medium was thoroughly removed and the cells were isolated via trypsin treatment. The suspensions were then centrifuged for 5 min to collect cells. The obtained cells were treated with 5% trichloroacetic acid (TCA), stirred and centrifuged. The precipitated melanin was washed with phosphate buffered saline (PBS), and treated with 1 N NaOH to dissolve the melanin therein. Absorbance at 475 nm was measured. Melanin concentration was determined from a standard concentration curve of synthetic melanin (SIGMA Co., USA).

[5] = system: melan-a cell line; assay: Melanin production in melan-a cell line; type: cell-based; conditions: melan-a cells; for Melanin production (%): 72 hr
Description: Melan-a cells were grown in 10 mL of RPMI 1640 medium supplemented with antibiotics, 10% fetal bovine serum (FBS), and 20 nM TPA. The cell suspension was inoculated in a 24-well plate (10^5 cells/mL) and the cells were allowed to completely adhere to the plate for 24 hr. Test samples dissolved in DMSO were added to the plate and incubated at 37° C. for 72 hr in a CO2 incubator. The culture medium was then thoroughly removed and the cells were isolated through trypsin treatment. The suspensions were then centrifuged for 5 min to collect cells, which were then treated with 5% trichloroacetic acid (TCA), stirred and centrifuged to precipitate the melanin. Melanin was washed with PBS and dissolved in 1 N NaOH. Absorbance at 475 nm was measured. Melanin concentration was determined from a standard concentration curve of synthetic melanin (SIGMA Co., USA).

[6] = system: Mushroom Tyrosinase; assay: Extended duration of mushroom tyrosinase inhibition (up to 24 hours); type: biochemical
Description: as §1
Using the experimental conditions described in the Mushroom Tyrosinase experiment described above, the reaction mixtures, containing various concentrations from 1 μg/mL to 50 μg/mL of the agents assayed, were incubated at 37° C. and spectrophotometric measurements of dopachrome were made at time intervals of up to 24 hours.

[7] = system: tyrosinase mRNA; assay: RT-PCR analysis of tyrosinase mRNA in murine melanoma B-16 cells; type: cell-based; conditions: FIG. 5
Description: To elucidate the mechanism by which Morus alba extract and mulberroside A exerts its effect, RT-PCR analysis was performed. mRNA from cultured murine melanoma B-16 cells were isolated using a Promega polytract system 1000 mRNA isolation kit. Approximately 80 to 100 μg of mRNA was isolated from 10^8 cells. We synthesized the 3′ primer 5′[…]3′ (nucleotides 197-216 from the ATG start codon) and the 5′ primer 5′[…]3′ (nucleotides 669-688 from the ATG start codon) for use in the RT-PCR analysis of tyrosinase mRNA.
This mixture was incubated for 1 minute at 94° C., then for 30 seconds at 55° C. and finally for 10 minutes at 72° C.
For PCR amplification of cDNA, 80 μL of a PCR mixture containing 8 μL of 10× chelating buffer, 1 mM MgCl2 and 50 pmole of 5′ primer was added to the reverse transcription reaction mixture. DNA amplification was performed on a Perkin Elmer Gene Amp PCR system 2400 thermal cycler. The PCR cycle conditions included melting for 30 sec at 94° C., annealing for 30 sec at 55° C., and extension for 1 min at 72° C. The PCR ran for 28 cycles, and the products (492 bp) were analyzed by 2% agarose gel electrophoresis. As an internal control, mouse β-actin mRNA was also amplified using the mouse β-actin amplimer set (Clontech, USA).

[8] = system: melanocytes; assay: Microscopic observation of pigmentation of confluent melanocyte monolayer; type: cell-based; conditions: cell line not specified
Description: The pigmentation of a confluent monolayer of melanocytes is visible microscopically, as the cells contain black melanin pigment.

## OC[C@H]1O[C@@H](Oc2cc(O)cc(/C=C/c3ccc(O[C@@H]4O[C@H](CO)[C@@H](O)[C@H](O)[C@H]4O)cc3O)c2)[C@H](O)[C@@H](O)[C@@H]1O [Mulberroside A, mulberroside A]
[1]; 37° C., 15 min, L-tyrosine substrate
  IC50: 9.5 µM
[1]; FIGS. 1 and 2
  inhibitory effect on mushroom tyrosinase (in words): the most potent inhibitors of mushroom tyrosinase
[2]
  IC50: 61.5 µM
[3]
  IC50: 76.8 µM
[4]; 1 μg/mL
  Melanin production (%): 98.3 ± 1.0%
[4]; 5 μg/mL
  Melanin production (%): 92.4 ± 2.1%
[4]; 10 μg/mL
  Melanin production (%): 91.2 ± 7.3%
[4]; 50 μg/mL
  Melanin production (%): 59.8 ± 9.0%
[4]; 100 μg/mL
  Melanin production (%): 21.8 ± 5.4%
[4]; melanoma B-16 cells, 100 μg/mL
  reduction in melanin production: 78.2%
[5]; 1 μg/mL
  Melanin production (%): 98.5 ± 7.2%
[5]; 5 μg/mL
  Melanin production (%): 93.6 ± 4.8%
[5]; 10 μg/mL
  Melanin production (%): 92.8 ± 6.5%
[5]; 50 μg/mL
  Melanin production (%): 61.2 ± 8.0%
[5]; 100 μg/mL
  reduction in melanin production: 76.3%
  Melanin production (%): 23.7 ± 3.8%
[6]; from IC50 values after 24 hours incubation
  fold stronger inhibitory effect on tyrosinase activity than kojic acid: 12 fold
[6]; read-out: IC50 for tyrosinase inhibition after 24 hours incubation, 24 hours incubation
  IC50: 20 µM
[7]
  amount of tyrosinase mRNA: decreased the amount of tyrosinase mRNA in a dose-dependent manner
[8]
  pigmentation of treated cells observed microscopically: Reduced pigmentation
